In patent publication US9757356B2 (CHONNAM NATIONAL UNIVERSITY HOSPITAL, priority 2015, dated 2017):

What was measured:
GSK3β = target: T1, GSK3β (Rattus norvegicus, UniProt P18266); experiment: p-GSK3β expression in cardiac fibroblasts, Western blotting; type: cell-based; conditions: cardiac fibroblasts, 0, 0.25, 2.5 and 5 μM for 2 days, FIG. 7
T1 construct: endogenous in cells; host or cells: cardiac fibroblasts (primary culture)
Description: Since GSK3β was in an inert state when phosphorylated, an increase in expression level of p-GSK3β was determined using Western blotting in order to evaluate the inhibition of GSK3β.

[1] = test system: cardiac fibroblasts (cFBs); experiment: BrdU cell proliferation assay, cardiac fibroblasts in cardiomyocyte/cardiac fibroblast co-culture; type: cell-based, rat
Description: (§1) Hearts of two-day-old rats were removed and washed with physiological saline. Thereafter, left cardiac muscles were separated from the hearts in a sterilization cabinet, and microtomed into segments. These myocardial tissues were added to a collagenase enzyme solution, reacted at 37° C. while stirring, and then centrifuged to collect only the supernatant which were then kept in a cell culture flask. After an hour, cardiomyocytes which floated when the supernatant was transferred to a new culture flask were separated from cardiac fibroblasts attached to the bottom of the cell culture flask. At this point, both the cardiomyocytes and the cardiac fibroblasts were cultured in a Dulbecco's modified Eagle's medium (DMEM) supplemented with 10% fetal bovine serum (FBS) and then used for experiments.
(§2) After 2 days and 5 days, the proliferation of cells was quantified.
(§3) To determine the level of new DNA synthesis, a cell proliferation assay was performed by adding bromodeoxyuridine (BrdU) to a cell culture broth in advance to incorporate BrdU into DNAs of cells and performing a chromogenic reaction using an anti-BrdU antibody.
Then, cells which were not stained with cardiac troponin I but stained with DAPI were regarded as cardiac fibroblasts and then counted.

cardiomyocytes (CMs) = experiment: BrdU cell proliferation assay, cardiomyocytes in cardiomyocyte/cardiac fibroblast co-culture; type: cell-based, rat; conditions: BIO 2.5 μM and 5 μM, after 2 days and 5 days, FIG. 1
Description: as §1, §2, §3

MI animal model [2] = experiment: Myocardial fibrosis by Masson's trichrom staining in MI animal model; type: in vivo, rat; conditions: MI rats, MI+BIO vs MI+vehicle, FIG. 4
Description: (§4) To induce the onset of myocardial infarction, first of all, rats weighing 200 to 230 g were anesthetized with ketamine (50 mg/kg) and xylazine (5 mg/kg), and the chests of the rats were shaved and disinfected. An anesthesia ventilator was installed to manage the airway of the rat, and the chest was incised to expose the heart. Then, a cardiac muscle was sutured in a region of the left anterior descending artery (LAD) to block a blood flow, thereby establishing an MI animal model.
(§5) After two weeks, the rats were anesthetized, and subjected to echocardiography to examine the cardiac functions.
To quantify myocardial fibrosis, the heart tissues were also removed, fixed with formalin, embedded in a paraffin block, and then microtomed into sections having a thickness of 10 μm. Thereafter, the sections were histologically stained using a Masson's trichrom method.

[3] = test system: macrophage cell line RAW264.7; experiment: iNOS expression in LPS-stimulated macrophages, Western blotting; type: cell-based, mouse; conditions: RAW264.7, LPS 100 ng/mL, BIO 0, 1, 2.5 and 5 μM, FIG. 5
Description: A mouse macrophage cell line RAW264.7 (Korean Cell Line Bank) was cultured in a DMEM broth supplemented with 10% fetal bovine serum, and lipopolysaccharide (LPS) was added at a concentration of 100 ng/mL to the culture broth to initiate inflammation of macrophages.

MI animal model [4] = experiment: Echocardiography of cardiac function in MI animal model; type: in vivo, rat; conditions: MI rats, 0.2 mg/body weight intra-abdominally daily
Description: as §4, §5
In this case, the indices have the following meanings. • IVSd; thickness of interventricular septum (diastole) • IVSs; thickness of interventricular septum (systole) • LVIDd; thickness of left ventricular internal dimension (diastole) • LVIDs; thickness of left ventricular internal dimension (systole) • LVPWd; left ventricle posterior wall thickness (diastole) • LVPWs; left ventricle posterior wall thickness (systole) • EF; ejection fraction • FS; fractional shortening

MI animal model [5] = experiment: Macrophage phenotype (CD68/Arg1 immunofluorescence) in cardiac muscle of MI animal model; type: in vivo, rat; conditions: MI rats, 2nd week after onset of myocardial infarction, FIG. 6
Description: Specifically, a slide for myocardial infarction heart tissues was treated with an anti-CD68 antibody and an anti-Arg1 antibody, and a fluorescence image was visualized using a secondary antibody. Then, the tissues were observed under a confocal microscope with a magnification of 800 times. Since the macrophages in the tissues expressed CD68, the macrophages were detected using the anti-CD68 antibody. Also, since a marker used to distinguish the characteristics of the macrophages in the tissues was iNOS in the case of the inflammatory M1 macrophages and arginase 1 (Arg1) in the case of the anti-inflammatory M2 macrophages, the macrophages were stained with an anti-inflammatory marker Arg1 for macrophages in order to determine how many the phenotype of the macrophages in the heart was converted into the M2 type at the 2nd week after the onset of myocardial infarction.

[6] = echocardiography after two weeks

T1 sequence (P18266 whole entry): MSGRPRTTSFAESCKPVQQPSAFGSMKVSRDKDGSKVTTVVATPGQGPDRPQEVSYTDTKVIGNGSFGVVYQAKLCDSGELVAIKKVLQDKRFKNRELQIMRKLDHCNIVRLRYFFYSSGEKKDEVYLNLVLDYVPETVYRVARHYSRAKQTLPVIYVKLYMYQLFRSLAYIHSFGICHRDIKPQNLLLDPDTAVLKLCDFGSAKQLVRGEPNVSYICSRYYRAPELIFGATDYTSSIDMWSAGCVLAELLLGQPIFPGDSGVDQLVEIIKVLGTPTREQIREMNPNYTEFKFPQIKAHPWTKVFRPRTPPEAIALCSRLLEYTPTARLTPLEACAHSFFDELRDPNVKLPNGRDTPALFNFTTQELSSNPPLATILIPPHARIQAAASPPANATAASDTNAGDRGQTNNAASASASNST

| expression level of p-GSK3β (inert form), GSK3β inhibition (GSK3β) | Compound | inhibitory effect on the proliferation of the cardiac fibroblasts ([1]; BIO 5 μM and 10 μM vs LiCl, same manner as Example 3, FIG. 8) | BrdU (+) CM/total CM, proliferation rate of dividing cardiomyocytes (cardiomyocytes (CMs)) | fibrosis regions (blue), myocardial fibrosis (MI animal model [2]) | BrdU (+) cFB/total cFB, proliferation rate of dividing cardiac fibroblasts ([1]; co-culture, BIO 2.5 μM and 5 μM, FIG. 2) | expression of iNOS (inflammatory marker) [3] | diastolic and systolic functions of the heart (MI animal model [4]; after two weeks, vs MI+saline) | EDV (MI animal model [4]; [6]) | EF; ejection fraction (MI animal model [4]; [6]) | ESV (MI animal model [4]; [6]) | FS; fractional shortening (MI animal model [4]; [6]) | IVSd; thickness of interventricular septum (diastole) (MI animal model [4]; [6]) | IVSs; thickness of interventricular septum (systole) (MI animal model [4]; [6]) | LVIDd; thickness of left ventricular internal dimension (diastole) (MI animal model [4]; [6]) | LVIDs; thickness of left ventricular internal dimension (systole) (MI animal model [4]; [6]) | LVPWd; left ventricle posterior wall thickness (diastole) (MI animal model [4]; [6]) | LVPWs; left ventricle posterior wall thickness (systole) (MI animal model [4]; [6]) | SV (MI animal model [4]; [6]) | Arg1-expressing (anti-inflammatory M2 type) macrophages in the cardiac muscles (MI animal model [5]) |
| --- | --- | --- | --- | --- | --- | --- | --- | --- | --- | --- | --- | --- | --- | --- | --- | --- | --- | --- | --- |
| increased | [Cl-].[Li+] [LiCl, reference compound] | not observed |  |  |  |  |  |  |  |  |  |  |  |  |  |  |  |  |  |
|  | O=C1Nc2cc(Br)ccc2/C1=C1/Nc2ccccc2/C1=N\O [BIO, (2′Z,3′E)-6-bromoindirubin-3′-oxime] |  | significantly increased | significantly reduced | significantly decreased | lowered in a concentration-dependent manner | well preserved | 1.563 ± 0.308 | 41.313 ± 6.823 | 0.911 ± 0.251 | 18.262 ± 3.525 | 0.079 ± 0.013 | 0.084 ± 0.028 | 0.900 ± 0.066 | 0.736 ± 0.074 | 0.089 ± 0.023 | 0.115 ± 0.019 | 0.651 ± 0.116 | prevailed |
